Test results reported in patent publication US20090215893A1, “Parakeratosis inhibitor, pore-shrinking agent,or rough skin preventing/ameliorating agent, and external composition for skin” (Shiseido Company Ltd, priority 2005, published 2009).

Legend:
[1] = tested on: back of hairless mice (HR-1), 10 mass % oleic acid applied; test: Inhibiting effect against rough skin induced by oleic acid application (transepidermal water loss); assay type: in vivo; set-up: ΔTEWL value: unit not given here; details: for ΔTEWL value: sample 3 mass %, three days, average of four animals, rough skin worse as value increases, control 12.0; for ΔTEWL value compared with the control aqueous solution / rough skin preventing/ameliorating effect: summary of Table 3, concentrations as in Table 3
Experimental: In order to investigate the inhibiting effect of α-amino acid derivatives and salts thereof against rough skin induced by oleic acid application, the transepidermal water loss (TEWL value) before and after application was measured, the difference was compared with the control (control aqueous solution), and the effect was determined. Sample preparation and the application method were in accordance with Example 1. The TEWL was determined using the TM210 TEWA Meter (Courage+Khazaka Electronic GmBH).
100 μL of 10 mass % oleic acid (solvent: ethanol) was applied to the back of hairless mice (HR-1, four mice per group). Then a sample solution (α-amino acid derivatives, and the like) was applied 100 μL at a time. This procedure was continued for three days. The following day, the TEWL value of the back was determined and the values of the four animals were averaged. Rough skin became worse as the ΔTEWL value increased.

[2] = tested on: back of a hairless mouse (HR-1), 10 mass % oleic acid applied; test: Parakeratosis-inhibiting effect tests: oleic acid applied to hairless mouse back, macroscopic rough skin evaluation and parakeratosis value; assay type: in vivo; details: for Macroscopic evaluation (average of four animals) / Parakeratosis value (average of four animals): sample 3 mass %; for Macroscopic evaluation (average of four animals): 100 μL after oleic acid, three days, rough skin score 0.0 (no redness) to 2.0 (control); for Parakeratosis value (average of four animals): tape-stripped stratum corneum, hematoxylin, range 1.0 to 3.0, higher = parakeratosis advanced, control 2.0; for parakeratosis value / parakeratosis-inhibiting effect / rough skin preventing effect, based on stratum corneum peeling and redness: summary of Table 1, concentrations as in Table 1
Experimental: Aqueous solutions (containing 30 mass % of ethanol) of primarily 3 mass % of an α-amino acid derivative or salt thereof were prepared as the evaluation sample. The pH was regulated by hydrochloric acid or sodium hydroxide so as to be 7.0 to 7.5. When sample solubility was low, the solution was prepared accordingly.
100 μL of 10 mass % oleic acid solution (solvent: ethanol) were applied to the back of a hairless mouse (HR-1; Hoshino Laboratory Animals). Then the sample solution (α-amino acid derivative, and the like) was applied 100 μL at a time. This procedure was continued for three days. […] The status of the skin was evaluated in 0.25-point intervals, with skin where the control (control aqueous solution) had been applied being 2.0 and skin where there was no redness being 0.0. At the same time, the stratum corneum at the back of the hairless mouse was peeled off with tape, the nuclei were stained by hematoxylin, and the degree of parakeratosis was observed and evaluated by a parakeratosis value within a range of 1.0 to 3.0 (in 0.25 increments).

[3] = tested on: pores of the cheeks of healthy human males; test: Human pore-shrinking effect (replica assessment of cheek pores); assay type: in vivo; details: for Replica assessment (average of n = 5): sample 3 mass %, twice a day for one month, pore size rating 1-13, after application minus before application, control 0.3; for pore-shrinking effect: summary of Table 2, concentrations as in Table 2
Experimental: An experiment was conducted whereby a sample was applied twice a day for one month to the cheeks of healthy human males in groups of 5 men each. Aqueous solutions (containing 15 mass % of ethanol) of 3 mass % of the α-amino acid derivative or a salt thereof were prepared as the evaluation sample. The pH was regulated by hydrochloric acid or sodium hydroxide so as to be 7.0 to 7.5. When sample solubility was low, the solution was prepared accordingly. The control was an aqueous 15% ethanol solution. The sample aqueous solution and control aqueous solution were applied to one half of the face at a time.
A replica was collected before and after continuous application, and changes in the shape of the pores at the same site were observed using a three-dimensional laser scanning microscope. The size of the pores was macroscopically evaluated in 13 steps of 1 through 13 (with the pores becoming larger as the numbers became larger), the difference in the ratings before and after application (after application-before application) was calculated, and the efficacy of each sample was studied using this difference as the replica assessment.

[4] = tested on: cheek of a panel of 20 women; test: Sensory irritation tests; assay type: in vivo, human; details: for Evaluation (sensory irritation, class of average rating): sample 3 mass %, 1 mL on cheek, evaluated for ten minutes, 20 women; for sensory irritation: summary of Table 4, β-alanine at 3%
Experimental: 1 mL of a control aqueous solution and the sample aqueous solution prepared in Example 1 were applied using a cotton swab to the left or right cheek, respectively, of a panel of 20 women, the irritating sensation was evaluated every 30 seconds for ten minutes beginning immediately after application, and a final evaluation was reported. The evaluation of the irritating sensation was based on the following four steps of rating criteria, the average rating was calculated, and the average was classified by the following criteria.
3: Discontinued because of extremely strong irritation, such as stinging sensation, burning sensation, tickling sensation, itching, and the like.
2: Intolerable strong irritation, such as stinging sensation, burning sensation, tickling sensation, itching, and the like.
1: Tolerable with only slight stinging sensation, burning sensation, tickling sensation, itching, and the like.
0: Not particularly irritating.
A: average rating of less than 0.2
B: average rating of 0.2 to less than 1.0
C: average rating of 1.0 to less than 2.0
D: average rating of 2.0 or greater

| Compound | ΔTEWL value [1] | ΔTEWL value compared with the control aqueous solution / rough skin preventing/ameliorating effect [1] | Macroscopic evaluation (average of four animals) [2] | Parakeratosis value (average of four animals) [2] | parakeratosis value / parakeratosis-inhibiting effect [2] | rough skin preventing effect, based on stratum corneum peeling and redness [2] | Replica assessment (average of n = 5) [3] | pore-shrinking effect [3] | Evaluation (sensory irritation, class of average rating) [4] | sensory irritation [4] |
| --- | --- | --- | --- | --- | --- | --- | --- | --- | --- | --- |
| C[C@H](NC1CCCCC1)C(=O)O [N-cyclohexyl-L-alanine] | 7.1 | significantly lower | 1.4 | 1.3 | reduced | seen | −1.2 | seen | A (average rating of less than 0.2) | no problems |
| O=C(O)[C@H](CO)NC1CCCCC1 [N-cyclohexyl-L-serine] | 7.0 | significantly lower | 1.3 | 1.2 | reduced | seen | −1.4 | seen | A (average rating of less than 0.2) | no problems |
| O=C(O)CNC1CCCCC1 [N-cyclohexyl-glycine] | 6.4 | significantly lower | 1.2 | 1.1 | reduced | seen | −1.5 | seen | A (average rating of less than 0.2) | no problems |
| CCN[C@H](C)C(=O)O [N-ethyl-D-alanine] | 8.3 | significantly lower | 1.6 | 1.7 | reduced | seen | −0.5 | seen | A (average rating of less than 0.2) | no problems |
| CCN[C@H](CO)C(=O)O [N-ethyl-D-serine] | 7.9 | significantly lower | 1.3 | 1.3 | reduced | seen | −1.2 | seen | A (average rating of less than 0.2) | no problems |
| CCN[C@@H](C)C(=O)O [N-ethyl-L-alanine] | 8.4 | significantly lower | 1.5 | 1.4 | reduced | seen | −0.4 | seen | A (average rating of less than 0.2) | no problems |
| CCN[C@@H](CO)C(=O)O [N-ethyl-L-serine] | 7.7 | significantly lower | 1.4 | 1.4 | reduced | seen | −1.2 | seen | A (average rating of less than 0.2) | no problems |
| CN[C@H](C)C(=O)O [N-methyl-D-alanine] | 8.2 | significantly lower | 1.2 | 1.3 | reduced | seen | −0.7 | seen | A (average rating of less than 0.2) | no problems |
| CN[C@H](CO)C(=O)O [N-methyl-D-serine] | 8.0 | significantly lower | 1.4 | 1.5 | reduced | seen | −1.5 | seen | A (average rating of less than 0.2) | no problems |
| CN[C@@H](C)C(=O)O [N-methyl-L-alanine] | 8.3 | significantly lower | 1.4 | 1.4 | reduced | seen | −0.8 | seen | A (average rating of less than 0.2) | no problems |
| CN[C@@H](CO)C(=O)O [N-methyl-L-serine] | 7.9 | significantly lower | 1.3 | 1.2 | reduced | seen | −1.2 | seen | A (average rating of less than 0.2) | no problems |
